According to patent US8637310B2, “Use of a rock inhibitor to sustain primary human keratinocytes in a proliferative state” (The United States of America, as represented by the …, priority 2008, dated 2014):

Experiments:
[1] = tested on: primary human foreskin keratinocytes; settings: cited from earlier work
p16^INK4a = assay: Immunodetection of p16INK4a; format: cell-based, human
Protocol: (§1) Proteins were extracted in 2% sodium dodecyl sulfate (SDS), 50 mM Tris-HCl (pH 6.8), 10% glycerol supplemented with inhibitors Complete and PhosphoSTOP (Roche, Indianapolis, Ind.). Protein samples were resolved on NuPage gels, electrotransferred to Immobilon-P membrane (Millipore, Billerica, Mass.), and probed with the relevant antibodies before detection by chemiluminescence. Monoclonal antibody against p53 (DO-1) was obtained from Santa Cruz Biotechnology (Santa Cruz, Calif.). Monoclonal antibody against α-tubulin (B-5-1-2) was obtained from Sigma-Aldrich. Polyclonal antibodies against Myc (N-262), p21 (C-19), and p16 (C-20) were obtained from Santa Cruz Biotechnology.

[2] = tested on: human cervical keratinocytes (HCK); assay: Long-term culture / immortalization of primary human cervical keratinocytes on feeder cells; format: cell-based; settings: 10 μM Y-27632; FIG. 9
Protocol: (§2) The HPV18 cell line was established by introducing the HPV18 genome into primary HFKs using the Amaxa human keratinocyte nucleofection system. Primary human cervical keratinocytes (HCKs), human vaginal keratinocytes (HVKs), the HPV18 cell lines and the HPV31 positive cell line (CIN-612 9E) were grown in the presence or absence of 10 μM Y-27632 (Alexis Biochemicals), as indicated. Cells were subcultured by removing the fibroblast feeder cells with versene and keratinocytes were collected by trypsinization. At each pass, 2×10^5 cells were plated on a 10 cm plate of J2 feeder cells. Population doubling was calculated as: PD=3.32(log(# cells harvested/# cells seeded)). Immunodetection

HPV31 [3] = assay: HPV DNA replication assay (Southern blot) in transfected primary keratinocytes, HPV31; format: cell-based, human papillomavirus; settings: 10 μM Y-27632; two and five days post-electroporation; FIG. 5
Protocol: (§3) Cloned viral genomes were cleaved with restriction enzymes to separate viral and vector sequences. The genomes were religated at a concentration of 5 μg/ml to favor intramolecular circularization. Prior to electroporation, J2 feeder cells were removed from the keratinocytes by versene treatment and the HFKs were collected by trypsinization. HFKs (1×10^6) were electroporated with 2 μg of re-circularized viral genomic DNA using the Amaxa Nucleofector II electroporator and the Human Keratinocyte Nucleofector Kit. The Amaxa program optimized for cell survival was used according to the manufacturer's specifications. Cells were removed from the cuvettes immediately following electroporation, and seeded onto 10 cm plates containing irradiated feeder cells and F-medium, in the presence or absence of 10 μM Y-27632, as indicated. At various times post-transfection, low molecular weight DNA was isolated by a modified Hirt extraction procedure (Ustav et al., EMBO J. 10:449-457, 1991). For Southern blot analysis, the isolated DNA was linearized with EcoRI or BamHI, depending on cloning site for each viral genome, and DpnI, to digest any unreplicated input DNA. DNA fragments were separated by agarose gel electrophoresis followed by Southern blot hybridization. […]

telomeres = assay: Telomere length assay (real-time PCR); format: cell-based, human
Protocol: Genomic DNA was extracted from cells and the average telomere length was assessed by a modified method of the real-time PCR-based telomere assay described previously (Cawthon et al., Nucleic Acids Res. 30: e47, 2002; Cawthon, Nucleic Acids Res. 37: e21, 2009). Briefly, the telomere repeat copy number to single gene copy number (T/S) ratio was determined using a Bio-Rad IQ5 thermocycler. Genomic DNA (5 ng) was subjected to PCR reactions and detected with SYBR Green Super Mix (Bio-Rad). The primers for telomere length and HBG1 (a single copy gene) were as follows. Reaction conditions were: 1 cycle, 95° C., 5 minutes; 41 cycles, 95° C., 15 seconds,; 1 cycle, 60° C. for 45 seconds. All reactions were carried out in triplicate and compared to a standard curve of 0, 0.2, 1, 5, 25 and 125 ng genomic DNA (telomere length 10.4 kb) from Roche Telo-kit. The T/S ratio (dCt) for each sample was calculated by normalizing the average HBG Ct value to the average telomere Ct value.

CIN612 9E cells = assay: Growth of CIN1-derived cell line CIN612 9E; format: cell-based, human; settings: 10 μM Y-27632; 44 days; FIG. 7
Protocol: The 9E and […] (20863 clone) cell lines were cultured in F-media on irradiated J2 feeder cells. For the Y-27632 experiments they were cultured in F-medium with or without 10 μM Y-27632 and continually passed for the times indicated.

HPV18 = assay: HPV DNA replication assay (Southern blot) in transfected primary keratinocytes, HPV18; format: cell-based, human papillomavirus
Protocol: Cloned viral genomes were cleaved with restriction enzymes to separate viral and vector sequences. The genomes were religated at a concentration of 5 μg/ml to favor intramolecular circularization. Prior to electroporation, J2 feeder cells were removed from the keratinocytes by versene treatment and the HFKs were collected by trypsinization. HFKs (1×10^6) were electroporated with 2 μg of re-circularized viral genomic DNA using the Amaxa Nucleofector II electroporator and the Human Keratinocyte Nucleofector Kit. The Amaxa program optimized for cell survival was used according to the manufacturer's specifications. Cells were removed from the cuvettes immediately following electroporation, and seeded onto 10 cm plates containing irradiated feeder cells and F-medium, in the presence or absence of 10 μM Y-27632, as indicated. At various times post-transfection, low molecular weight DNA was isolated by a modified Hirt extraction procedure (Ustav et al., EMBO J. 10:449-457, 1991). For Southern blot analysis, the isolated DNA was linearized with EcoRI or BamHI, depending on cloning site for each viral genome, and DpnI, to digest any unreplicated input DNA. DNA fragments were separated by agarose gel electrophoresis followed by Southern blot hybridization. A ^32P-labeled probe was synthesized from the isolated viral genomic DNA (purified from the vector sequence) by the random prime method and used in Southern hybridizations.

HPV6 = assay: HPV DNA replication assay (Southern blot) in transfected primary keratinocytes, HPV6; format: cell-based, human papillomavirus; settings: 10 μM Y-27632, FIG. 6
Protocol: as §3

p53 pathway = assay: Growth arrest assay (DNA damage response to 0.5 nM actinomycin D); format: cell-based, human; settings: 0.5 nM actinomycin D 24 hours; Y-27632-treated HFKs at P122; FIG. 12B
Protocol: Keratinocytes (1-2×10^6) were seeded on a 10 cm plate. Forty-eight hours later they were treated with 0.5 nM actinomycin D for 24 hours. Protein extracts were prepared, as described above, and analyzed for p53 and p21 protein levels.

[4] = tested on: human embryonic stem cells; settings: cited from earlier work
HPV31 [5] = assay: HPV31 genome copy number in CIN612 9E cells; format: cell-based, human papillomavirus; settings: 10 μM Y-27632, FIG. 8
Protocol: The 9E and W12 (20863 clone) cell lines were cultured in F-media on irradiated J2 feeder cells. For the Y-27632 experiments they were cultured in F-medium with or without 10 μM Y-27632 and continually passed for the times indicated.
as §3, with “DNA.” for “DNA. DNA fragments were separated by agarose gel electrophoresis followed by Southern blot hybridization.”

p53 = assay: Immunodetection of p53 and p21 during culture; format: cell-based, human; settings: keratinocytes cultured with Y-27632
Protocol: as §1

[6] = tested on: foreskin keratinocyte line (strain a); assay: Karyotype analysis of immortalized cells; format: cell-based, human; settings: HFK strain a, 95 passages in Y-27632
Protocol: This was conducted by Molecular Diagnostic Services, Inc. San Diego, Calif. Metaphase spreads were prepared and stained to observe chromosomal G bands.
Twenty metaphase spreads of each cell line was analyzed and five complete karyotypes were prepared from each.

[7] = tested on: human vaginal keratinocytes (HVK); assay: Long-term culture / immortalization of primary human vaginal keratinocytes on feeder cells; format: cell-based; settings: 10 μM Y-27632; FIG. 9
Protocol: as §2

SMILES: CC(N)[C@H]1CC[C@H](C(=O)Nc2ccncc2)CC1 (single isomer, unassigned; (+)) [Y-27632, (+)-trans-N-(4-Pyridyl)-4-(1-aminoethyl)-cyclohexanecarboxamide]
- colony forming ability [1]: increase the colony forming ability
- p16^INK4a levels (p16^INK4a; HPV immortalized cells): no effect
- p16^INK4a mRNA and protein expression (p16^INK4a; after long-term culture with Y-27632, FIG. 12A): still observed, albeit at a low level
- bypass of senescence [2]: efficiently bypassed senescence with no observed decline in growth rate
- cellular proliferation [2]: dramatic increase in cellular proliferation
- efficiency of HPV replication (HPV31 [3]): greatly increased the efficiency of HPV replication up to five days
- relative length of telomeres (telomeres; passage 50 to 120): became stable
- relative length of telomeres (telomeres; with passage in Y-27632, FIG. 11B): became progressively shorter with passage
- growth rate (CIN612 9E cells): no differences in growth rate were observed
- efficiency of HPV replication (HPV18; 10 μM Y-27632, two and five days post-electroporation, FIG. 5): greatly increased the efficiency of HPV replication up to five days
- HPV18 replication, long-term assay (HPV18; after day 10, FIG. 6): greater levels of replication in the absence of Y-27632
- HPV18 replication, long-term assay (HPV18; at early times, FIGS. 5 and 6): greater in the presence of Y-27632
- HPV6 viral DNA levels, long-term assay (HPV6; after three passes): the levels of viral DNA declined
- efficiency of HPV6 replication, long-term assay (HPV6; up to three passes): greatly increased the efficiency of replication and robust levels of viral DNA were present after three passes
- DNA damage response (p53 and p21 upregulation) (p53 pathway): normal DNA damage response
- survival rate of human embryonic stem cells following cryopreservation ([4]; Li et al. 2008): enhances the survival rate
- survival of embryonic stem cells ([4]; Watanabe et al. 2007): greatly increase the survival of embryonic stem cells
- HPV31 copy number (HPV31 [5]): remained constant
- p21 induction (p53): not induced
- p53 protein levels (p53): gradually increase
- karyotype of immortalized cells [6]: identical to that of the donor cells
- bypass of senescence [7]: efficiently bypassed senescence with no observed decline in growth rate
- cellular proliferation [7]: dramatic increase in cellular proliferation
